According to patent US10294202B2, “Pyrrolidinones as herbicides” (FMC Corporation, priority 2013, dated 2019):

Tests used:
barnyardgrass [1] = experiment: Test A pre-/postemergence herbicide test; format: in vivo, Echinochloa crus-galli
Outline: (§1)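 Greenhouse pot test with pre- and postemergence application of surfactant-containing solvent formulations. Postemergence plants were 2–10 cm, one- to two-leaf stage. Response scored visually after ~10 days, 0 (no effect) to 100 (complete control).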

crabgrass, large = experiment: Test A pre-/postemergence herbicide test; format: in vivo, Digitaria sanguinalis
Outline: as §1

giant foxtail = experiment: Test A pre-/postemergence herbicide test; format: in vivo, Setaria faberii
Outline: as §1

morningglory = experiment: Test A pre-/postemergence herbicide test; format: in vivo, Ipomoea spp.
Outline: as §1

pigweed = experiment: Test A pre-/postemergence herbicide test; format: in vivo, Amaranthus retroflexus
Outline: as §1

velvetleaf = experiment: Test A pre-/postemergence herbicide test; format: in vivo, Abutilon theophrasti
Outline: as §1

wheat = experiment: Test A pre-/postemergence herbicide test; format: in vivo, Triticum aestivum
Outline: as §1

corn = experiment: Test A pre-/postemergence herbicide test; format: in vivo, Zea mays
Outline: as §1

rice = experiment: Test B flooded paddy test; format: in vivo, Oryza sativa; conditions: 1000 g ai/ha, Flood; scale of 0 to 100 where 0 is no effect and 100 is complete control
Experimental: (§2) Plant species in the flooded paddy test selected from rice (Oryza sativa), sedge, umbrella (small-flower umbrella sedge, Cyperus difformis), ducksalad (Heteranthera limosa), and barnyardgrass (Echinochloa crus-galli) were grown to the 2-leaf stage for testing. At time of treatment, test pots were flooded to 3 cm above the soil surface, treated by application of test compounds directly to the paddy water, and then maintained at that water depth for the duration of the test. Treated plants and controls were maintained in a greenhouse for 13 to 15 days, after which time all species were compared to controls and visually evaluated. Plant response ratings, summarized in Table B, are based on a scale of 0 to 100 where 0 is no effect and 100 is complete control. A dash (-) response means no test result.

sedge, umbrella = experiment: Test B flooded paddy test; format: in vivo, Cyperus difformis; conditions: 1000 g ai/ha, Flood; scale of 0 to 100 where 0 is no effect and 100 is complete control
Experimental: as §2

ducksalad = experiment: Test B flooded paddy test; format: in vivo, Heteranthera limosa; conditions: 1000 g ai/ha, Flood; scale of 0 to 100 where 0 is no effect and 100 is complete control
Experimental: as §2

barnyardgrass [2] = experiment: Test B flooded paddy test; format: in vivo, Echinochloa crus-galli; conditions: 1000 g ai/ha, Flood; scale of 0 to 100 where 0 is no effect and 100 is complete control
Experimental: as §2

[3] = Postemergence, 125 g ai/ha, 0 to 100 scale, 0 is no effect, 100 is complete control
[4] = Postemergence, 500 g ai/ha, 0 to 100 scale (0 no effect, 100 complete control)
[5] = Preemergence, 125 g ai/ha, 0 to 100 scale where 0 is no effect and 100 is complete control
[6] = preemergence, 500 g ai/ha, 0 to 100 scale, 0 is no effect and 100 is complete control
[7] = Postemergence, 1000 g ai/ha, 0 to 100 scale (0 no effect, 100 complete control)
[8] = Preemergence, 1000 g ai/ha, visual rating on 0 to 100 scale (0 no effect, 100 complete control), approx. 10 days

O=C1NCC(c2ccc(F)c(F)c2)C1C(=O)Nc1cccc(C(F)(F)F)n1 (racemic) [Compound 245]
Plant response rating, Barnyardgrass (barnyardgrass [1]; [3]): 30
Plant response rating, Barnyardgrass (barnyardgrass [1]; [4]): 50
Plant response rating, Barnyardgrass (barnyardgrass [1]; [5]): 20
Plant response rating, Barnyardgrass (barnyardgrass [1]; [6]): 20
Plant response rating, Crabgrass, Large (crabgrass, large; [3]): 20
Plant response rating, Crabgrass, Large (crabgrass, large; [4]): 30
Plant response rating, Crabgrass, Large (crabgrass, large; [5]): 60
Plant response rating, Crabgrass, Large (crabgrass, large; [6]): 80
Plant response rating, Foxtail, Giant (giant foxtail; [3]): 20
Plant response rating, Foxtail, Giant (giant foxtail; [4]): 30
Plant response rating, Foxtail, Giant (giant foxtail; [5]): 60
Plant response rating, Foxtail, Giant (giant foxtail; [6]): 70
Plant response rating, Morningglory (morningglory; [3]): 0
Plant response rating, Morningglory (morningglory; [4]): 0
Plant response rating, Morningglory (morningglory; [5]): 0
Plant response rating, Morningglory (morningglory; [6]): 0
Plant response rating, Pigweed (pigweed; [3]): 40
Plant response rating, Pigweed (pigweed; [4]): 40
Plant response rating, Pigweed (pigweed; [5]): 0
Plant response rating, Pigweed (pigweed; [6]): 30
Plant response rating, Velvetleaf (velvetleaf; [3]): 20
Plant response rating, Velvetleaf (velvetleaf; [4]): 40
Plant response rating, Velvetleaf (velvetleaf; [5]): 0
Plant response rating, Velvetleaf (velvetleaf; [6]): 0
Plant response rating, Wheat (wheat; [3]): 0
Plant response rating, Wheat (wheat; [4]): 40
Plant response rating, Wheat (wheat; [5]): 0
Plant response rating, Wheat (wheat; [6]): 0
Plant response rating, Corn (corn; [3]): 0
Plant response rating, Corn (corn; [4]): 0
Plant response rating, Corn (corn; [5]): 0
Plant response rating, Corn (corn; [6]): 0
Plant response rating, Rice (rice): 0
Plant response rating, Sedge, Umbrella (sedge, umbrella): 0
Plant response rating, Ducksalad (ducksalad): 90
Plant response rating, Barnyardgrass (barnyardgrass [2]): 20

O=C1NCC(c2ccc(F)c(F)c2)C1C(=O)Nc1cccnc1C(F)(F)F (racemic) [Compound 98]
Plant response rating, Barnyardgrass (barnyardgrass [1]; [7]): 50
Plant response rating, Barnyardgrass (barnyardgrass [1]; [8]): 50
Plant response rating, Crabgrass, Large (crabgrass, large; [7]): 90
Plant response rating, Crabgrass, Large (crabgrass, large; [8]): 90
Plant response rating, Foxtail, Giant (giant foxtail; [7]): 60
Plant response rating, Foxtail, Giant (giant foxtail; [8]): 90
Plant response rating, Morningglory (morningglory; [7]): 0
Plant response rating, Morningglory (morningglory; [8]): 0
Plant response rating, Pigweed (pigweed; [7]): 0
Plant response rating, Pigweed (pigweed; [8]): 0
Plant response rating, Velvetleaf (velvetleaf; [7]): 10
Plant response rating, Velvetleaf (velvetleaf; [8]): 0
Plant response rating, Wheat (wheat; [7]): 20
Plant response rating, Wheat (wheat; [8]): 0
Plant response rating, Corn (corn; [7]): 0
Plant response rating, Corn (corn; [8]): 20
Plant response rating, Rice (rice): 0
Plant response rating, Sedge, Umbrella (sedge, umbrella): 0
Plant response rating, Ducksalad (ducksalad): 90
Plant response rating, Barnyardgrass (barnyardgrass [2]): 0
